Source: ChEMBL document CHEMBL5537159, “Discovery and SAR of JTE-151: A Novel RORγ Inhibitor for Clinical Development” (J Med Chem, 2024)
Active and inactive are the calls of the source. The calls are words filed in the database; no cut-off is given here.

Tests used:
Acetylcholinesterase = Acetylcholinesterase (Electrophorus electricus, UniProt O42275); assay: Inhibition of Electric eel AChE
[1] = MRT in C57BL/6J mouse at 3 mg/kg, po administered as single dose and measured after 24 hrs; assay type: ADME, organism-based; details: in vivo
[2] = Genotoxicity in Salmonella typhimurium TA1537 at 47 to 1500 ug in presence of S9 fraction by bacterial reverse mutation test; assay type: toxicity, subcellular, Salmonella enterica subsp. enterica serovar Typhimurium; details: dose 47-1500 µg
[3] = Volume of distribution at steady state in CD(SD) rat at 1 mg/kg, iv administered as single dose and measured after 24 hrs; assay type: ADME, organism-based; details: in vivo, read-out: Vdss
[4] = Selectivity ratio of antagonist activity at human FXR to inhibition of RORgamma (unknown origin)
[5] = Genotoxicity in Salmonella typhimurium TA100 at 23 to 750 ug in presence of S9 fraction by bacterial reverse mutation test; assay type: toxicity, subcellular, Salmonella enterica subsp. enterica serovar Typhimurium; details: dose 23-750 µg
[6] = Selectivity ratio of agonist activity at human AR to inhibition of RORgamma (unknown origin)
[7] = Toxicity in CHL cells assessed as chromosomal aberration at 30 to 50 ug/ml incubated for 24 hrs in absence of S9 fraction; assay type: cell-based, Cricetulus griseus; details: chinese hamster, dose 30-50 µg/ml
[8] = Volume of distribution at steady state in cynomolgus monkey at 1 mg/kg, iv administered as single dose and measured after 24 hrs; assay type: ADME, organism-based, Macaca fascicularis; details: in vivo, read-out: Vdss
[9] = Oral bioavailability in CD(SD) rat at 10 mg/kg administered as single dose and measured after 24 hrs; assay type: ADME, organism-based; details: in vivo
[10] = Genotoxicity in Salmonella typhimurium TA1537 at 23 to 750 ug in absence of S9 fraction by bacterial reverse mutation test; assay type: toxicity, Salmonella enterica subsp. enterica serovar Typhimurium; details: in vivo; dose 23-750 µg
[11] = target: Amine oxidase [flavin-containing] A (Homo sapiens, UniProt P21397); assay: Inhibition of human MAO-A
Sequence of Amine oxidase [flavin-containing] A (P21397 whole entry): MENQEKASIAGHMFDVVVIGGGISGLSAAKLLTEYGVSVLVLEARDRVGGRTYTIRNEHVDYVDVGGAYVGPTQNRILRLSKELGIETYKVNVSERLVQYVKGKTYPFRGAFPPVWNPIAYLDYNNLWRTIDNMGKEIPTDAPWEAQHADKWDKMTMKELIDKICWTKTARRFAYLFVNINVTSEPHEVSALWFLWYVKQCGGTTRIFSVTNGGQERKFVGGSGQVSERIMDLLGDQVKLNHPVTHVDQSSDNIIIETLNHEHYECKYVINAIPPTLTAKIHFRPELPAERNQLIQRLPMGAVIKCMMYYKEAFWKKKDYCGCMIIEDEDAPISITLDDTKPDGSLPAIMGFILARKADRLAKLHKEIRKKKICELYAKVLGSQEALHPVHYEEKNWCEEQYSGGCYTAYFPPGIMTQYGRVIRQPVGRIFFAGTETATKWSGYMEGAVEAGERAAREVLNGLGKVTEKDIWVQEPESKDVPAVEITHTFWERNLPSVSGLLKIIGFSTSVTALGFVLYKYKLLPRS

Histamine H1 receptor = Histamine H1 receptor (Homo sapiens, UniProt P35367); assay: Inhibition of human histamine H1 receptor
Sequence of Histamine H1 receptor (P35367 whole entry): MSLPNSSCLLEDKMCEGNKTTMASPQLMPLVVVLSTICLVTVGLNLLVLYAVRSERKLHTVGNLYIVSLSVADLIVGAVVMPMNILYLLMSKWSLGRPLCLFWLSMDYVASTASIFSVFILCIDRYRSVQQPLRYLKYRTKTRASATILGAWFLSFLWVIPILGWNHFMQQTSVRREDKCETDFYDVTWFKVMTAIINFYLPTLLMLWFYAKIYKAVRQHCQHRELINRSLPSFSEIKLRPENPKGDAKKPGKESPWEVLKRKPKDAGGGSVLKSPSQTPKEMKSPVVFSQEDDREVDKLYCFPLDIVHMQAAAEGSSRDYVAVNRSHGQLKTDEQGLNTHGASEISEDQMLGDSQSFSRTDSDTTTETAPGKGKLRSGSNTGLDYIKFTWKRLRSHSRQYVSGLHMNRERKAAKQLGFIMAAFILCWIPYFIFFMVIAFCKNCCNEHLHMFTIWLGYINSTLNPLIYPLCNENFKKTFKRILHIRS

[12] = Cmax in human at 600 […], po administered as single dose and measured upto 144 hrs; assay type: ADME, organism-based; details: in vivo
Cytochrome P450 3A5 = Cytochrome P450 3A5 (Homo sapiens, UniProt P20815); assay: Inhibition of CYP3A5 in human liver microsomes using midazolam as substrate; assay type: ADME, Microsome
Sequence of Cytochrome P450 3A5 (P20815 whole entry): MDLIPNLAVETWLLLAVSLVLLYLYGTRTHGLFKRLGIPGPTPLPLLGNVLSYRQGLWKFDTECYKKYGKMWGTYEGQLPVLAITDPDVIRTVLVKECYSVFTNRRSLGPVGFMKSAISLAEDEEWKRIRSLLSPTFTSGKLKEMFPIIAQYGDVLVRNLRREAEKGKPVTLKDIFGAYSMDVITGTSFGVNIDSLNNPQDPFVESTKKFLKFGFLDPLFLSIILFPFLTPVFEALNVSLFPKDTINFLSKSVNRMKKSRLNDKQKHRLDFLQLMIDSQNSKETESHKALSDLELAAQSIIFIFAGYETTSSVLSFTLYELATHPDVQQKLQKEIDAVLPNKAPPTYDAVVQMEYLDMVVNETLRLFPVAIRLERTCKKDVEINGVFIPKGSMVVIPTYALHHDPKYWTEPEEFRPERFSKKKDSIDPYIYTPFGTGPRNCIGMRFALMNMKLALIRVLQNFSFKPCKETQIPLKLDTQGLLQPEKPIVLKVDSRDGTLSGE

Cytochrome P450 2C9 = Cytochrome P450 2C9 (Homo sapiens, UniProt P11712); assay: Inhibition of CYP2C9 in human liver microsomes; assay type: ADME, Microsome
Sequence of Cytochrome P450 2C9 (P11712 whole entry): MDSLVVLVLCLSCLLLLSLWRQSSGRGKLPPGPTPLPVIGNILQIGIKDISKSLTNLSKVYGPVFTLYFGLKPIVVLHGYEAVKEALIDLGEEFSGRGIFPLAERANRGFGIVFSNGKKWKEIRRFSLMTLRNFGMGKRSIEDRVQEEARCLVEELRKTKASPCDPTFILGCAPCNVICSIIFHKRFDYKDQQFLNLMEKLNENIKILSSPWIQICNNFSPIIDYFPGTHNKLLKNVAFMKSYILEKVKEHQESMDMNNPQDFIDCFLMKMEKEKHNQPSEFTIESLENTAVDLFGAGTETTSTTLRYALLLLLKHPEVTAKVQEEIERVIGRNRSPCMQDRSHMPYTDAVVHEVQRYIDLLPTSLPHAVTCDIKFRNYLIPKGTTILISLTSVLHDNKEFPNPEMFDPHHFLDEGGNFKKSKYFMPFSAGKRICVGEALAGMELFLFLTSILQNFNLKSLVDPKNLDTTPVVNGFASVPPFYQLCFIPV

[13] = Elimination half life in CD(SD) rat at 1 mg/kg, iv administered as single dose and measured after 24 hrs; assay type: ADME, organism-based; details: in vivo, read-out: beta t1/2 (converted)
[14] = Elimination half life in human at 600 mg/kg, po administered as single dose and measured upto 144 hrs; assay type: ADME, organism-based; details: in vivo, read-out: beta t1/2 (converted)
Cytochrome P450 2C8 = Cytochrome P450 2C8 (Homo sapiens, UniProt P10632); assay: Inhibition of CYP2C8 in human liver microsomes; assay type: ADME, Microsome
Sequence of Cytochrome P450 2C8 (P10632 whole entry): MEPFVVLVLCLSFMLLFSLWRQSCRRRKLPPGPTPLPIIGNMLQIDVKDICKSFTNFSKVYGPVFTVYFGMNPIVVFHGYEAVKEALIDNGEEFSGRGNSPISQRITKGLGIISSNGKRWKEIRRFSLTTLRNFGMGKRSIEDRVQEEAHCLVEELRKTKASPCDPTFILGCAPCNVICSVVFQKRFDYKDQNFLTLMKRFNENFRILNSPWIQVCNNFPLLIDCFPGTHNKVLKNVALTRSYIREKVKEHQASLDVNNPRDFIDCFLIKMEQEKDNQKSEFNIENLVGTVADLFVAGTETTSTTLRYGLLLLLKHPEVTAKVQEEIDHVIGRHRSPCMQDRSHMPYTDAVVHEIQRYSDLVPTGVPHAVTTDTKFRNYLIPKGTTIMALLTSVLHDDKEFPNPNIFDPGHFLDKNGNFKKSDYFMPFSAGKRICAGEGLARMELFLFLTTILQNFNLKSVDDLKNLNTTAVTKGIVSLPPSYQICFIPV

[15] = Cmax in human at 30 […], po administered as single dose and measured upto 144 hrs; assay type: ADME, organism-based; details: in vivo
[16] = Selectivity ratio of antagonist activity at mouse LXRalpha to inhibition of RORgamma (unknown origin)
[17] = Elimination half life in human at 30 mg/kg, po administered as single dose and measured upto 144 hrs; assay type: ADME, organism-based; details: in vivo, read-out: beta t1/2 (converted)
[18] = Inhibition of rat GABA-B receptor
[19] = target: Adrenergic receptor alpha-2 (Rattus norvegicus, UniProt P22086+P19328+P22909); assay: Inhibition of rat adrenergic alpha2 receptor; assay type: protein assay
[20] = Genotoxicity in Salmonella typhimurium TA98 at 23 to 750 ug in absence of S9 fraction by bacterial reverse mutation test; assay type: toxicity, Salmonella enterica subsp. enterica serovar Typhimurium; details: in vivo; dose 23-750 µg
[21] = Inhibition of rat K+ ATP channel
[22] = Selectivity ratio of agonist activity at human RXRalpha to inhibition of RORgamma (unknown origin)
[23] = Total body clearance in Beagle dog at 1 mg/kg, iv administered as single dose and measured after 24 hrs; assay type: ADME, organism-based, Canis lupus familiaris; details: in vivo
[24] = Metabolic stability in human liver microsomes assessed as compound remaining at 5 umol/L measured after 60 mins by UPLC/MS analysis; assay type: ADME, Microsome; details: dose 5 µmol/L, read-out: Stability
Mus musculus = assay: Anti-inflammatory activity in complete Freund's adjuvant/MOG (35 to 55 residues)/pertussis toxin-induced experimental autoimmune encephalomyelitis C57BL/6 mouse model assessed as reduction in paralysis by measuring reduction in EAE clinical score at 3 to 10 mg/kg, po administered once daily for 17 days and measured on day 18; assay type: functional, organism-based; details: dose 3-10 mg/kg, time 18.0 day
[25] = Volume of distribution at steady state in C57BL/6J mouse at 1 mg/kg, iv administered as single dose and measured after 24 hrs; assay type: ADME, organism-based; details: in vivo, read-out: Vdss
Cytochrome P450 2D6 = Cytochrome P450 2D6 (Homo sapiens, UniProt P10635); assay: Inhibition of CYP2D6 in human liver microsomes; assay type: ADME, Microsome
Sequence of Cytochrome P450 2D6 (P10635 whole entry): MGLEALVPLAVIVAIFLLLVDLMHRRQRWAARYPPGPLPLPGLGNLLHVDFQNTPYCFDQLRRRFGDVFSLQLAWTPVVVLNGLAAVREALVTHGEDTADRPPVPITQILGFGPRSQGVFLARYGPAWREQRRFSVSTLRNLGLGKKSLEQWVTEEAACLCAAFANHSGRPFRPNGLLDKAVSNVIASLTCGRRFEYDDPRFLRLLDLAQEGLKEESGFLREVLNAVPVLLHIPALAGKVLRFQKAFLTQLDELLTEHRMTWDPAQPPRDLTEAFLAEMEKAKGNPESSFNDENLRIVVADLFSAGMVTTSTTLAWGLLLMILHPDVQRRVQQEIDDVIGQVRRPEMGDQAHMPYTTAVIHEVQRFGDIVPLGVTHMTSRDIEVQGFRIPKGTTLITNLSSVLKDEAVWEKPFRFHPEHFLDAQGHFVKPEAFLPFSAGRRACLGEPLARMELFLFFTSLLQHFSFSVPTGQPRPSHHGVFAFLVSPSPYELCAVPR

[26] = Toxicity in Sprague-Dawley rat assessed as development-limiting toxicity at 30 to 300 mg/kg, po administered once daily and measured on day 1,14 and 27; assay type: organism-based; details: in vivo, 648 h, dose 30-300 mg/kg, time 27 day
[27] = Cmax in human at 1000 […], po administered as single dose and measured upto 144 hrs; assay type: ADME, organism-based; details: in vivo
[28] = AUClast in human at 400 mg/kg, po administered as single dose and measured upto 144 hrs; assay type: ADME, organism-based; details: in vivo
[29] = target: T1, Nuclear receptor ROR-gamma (Homo sapiens, UniProt P51449); assay: Inhibition of GAL4 DNA-binding domain fused RORgamma (unknown origin) transfected in CHO-K1 cells incubated for 2 days by luciferase assay; assay type: cell-based
T1 sequence (P51449 whole entry): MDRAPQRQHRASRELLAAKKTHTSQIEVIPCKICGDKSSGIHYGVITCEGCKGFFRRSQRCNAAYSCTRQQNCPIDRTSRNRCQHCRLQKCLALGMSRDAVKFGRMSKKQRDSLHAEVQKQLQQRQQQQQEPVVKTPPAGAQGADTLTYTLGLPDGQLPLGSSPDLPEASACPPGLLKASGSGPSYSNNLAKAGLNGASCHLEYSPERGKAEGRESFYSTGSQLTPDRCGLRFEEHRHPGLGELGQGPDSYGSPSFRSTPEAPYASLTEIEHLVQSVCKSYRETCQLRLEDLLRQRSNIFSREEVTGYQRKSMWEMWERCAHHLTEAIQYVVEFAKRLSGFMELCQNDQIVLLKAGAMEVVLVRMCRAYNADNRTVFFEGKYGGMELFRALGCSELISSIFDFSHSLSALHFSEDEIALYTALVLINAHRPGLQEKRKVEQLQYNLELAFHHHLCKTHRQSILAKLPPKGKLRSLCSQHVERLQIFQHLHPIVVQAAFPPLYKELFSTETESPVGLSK

[30] = Genotoxicity in Salmonella typhimurium TA1535 at 188 to 5000 ug in presence of S9 fraction by bacterial reverse mutation test; assay type: toxicity, subcellular, Salmonella enterica subsp. enterica serovar Typhimurium; details: dose 188-5000 µg
[31] = Tmax in human at 30 […], po administered as single dose and measured upto 144 hrs; assay type: ADME, organism-based; details: in vivo
[32] = Selectivity ratio of agonist activity at human FXR to inhibition of RORgamma (unknown origin)

Sequence of Acetylcholinesterase (O42275 whole entry): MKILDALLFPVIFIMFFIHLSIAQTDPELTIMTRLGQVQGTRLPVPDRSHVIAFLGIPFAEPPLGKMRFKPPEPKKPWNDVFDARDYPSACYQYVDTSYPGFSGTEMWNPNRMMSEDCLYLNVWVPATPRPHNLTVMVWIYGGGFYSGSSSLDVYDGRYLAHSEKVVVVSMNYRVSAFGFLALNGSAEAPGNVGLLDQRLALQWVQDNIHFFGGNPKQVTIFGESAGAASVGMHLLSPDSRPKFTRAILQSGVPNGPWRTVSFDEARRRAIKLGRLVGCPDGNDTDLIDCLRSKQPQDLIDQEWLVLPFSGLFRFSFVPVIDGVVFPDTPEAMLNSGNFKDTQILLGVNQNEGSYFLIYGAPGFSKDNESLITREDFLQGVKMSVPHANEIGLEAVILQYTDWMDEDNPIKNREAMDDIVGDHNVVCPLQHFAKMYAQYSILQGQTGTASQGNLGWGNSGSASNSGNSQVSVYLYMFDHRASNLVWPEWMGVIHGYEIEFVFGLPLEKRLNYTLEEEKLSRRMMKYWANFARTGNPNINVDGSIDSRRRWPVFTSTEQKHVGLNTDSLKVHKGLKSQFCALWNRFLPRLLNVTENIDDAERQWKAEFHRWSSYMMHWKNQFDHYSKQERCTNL

With Cc1ccc(NC(=O)C[C@H](CCC(=O)O)c2noc([C@H]3C[C@@H](CC(C)(C)C)C3)c2C2CC2)c(Cl)c1 the IC50 (Acetylcholinesterase) was greater than 10 µM, the MRT [1] was 5.8 h and the Activity [2] was “Non-Toxic”. The Vd [3] was 0.34 L/kg, the Selectivity ratio [4] was greater than 100 and the Activity [5] was “Non-Toxic”. For the same compound, the Selectivity ratio [6] was greater than 100, the Activity [7] was “Non-Toxic” and the Vd [8] was 0.36 L/kg. The bioavailability [9] was 106%, the Activity [10] was “Non-Toxic” and the IC50 [11] was greater than 10 µM. It also gave an IC50 (Histamine H1 receptor) greater than 10 µM, a Cmax [12] of 26400 ng/mL and an IC50 (Cytochrome P450 3A5) greater than 10 µM. The IC50 (Cytochrome P450 2C9) was greater than 10 µM, the half-life [13] was 3 h and the half-life [14] was 7.33 h. The IC50 (Cytochrome P450 2C8) was 6.8 µM, the Cmax [15] was 1220 ng/mL and the Selectivity ratio [16] was greater than 100. The half-life [17] was 5.63 h, the IC50 [18] was greater than 10 µM and the IC50 [19] was greater than 10 µM. The Activity [20] was “Non-Toxic”, the IC50 [21] was greater than 10 µM and the Selectivity ratio [22] was greater than 100. For the same compound, the clearance [23] was 0.5 mL/min/kg, the remaining at 1 h, 5 µM [24] was 73% and the Activity (Mus musculus) was “Active”. The Vd [25] was 0.16 L/kg, the IC50 (Cytochrome P450 2D6) was greater than 10 µM and the Activity [26] was “Non-Toxic”. For the same compound, the Cmax [27] was 38100 ng/mL, the AUC(0-t) at 144 h [28] was 94300 ng·h/mL and the EC50 [29] was 0.013 µM. For the same compound, the Activity [30] was “Non-Toxic”, the Tmax [31] was 2.77 h and the Selectivity ratio [32] was greater than 100.
